Results on 51 compounds are retold here after ChEMBL document CHEMBL4418268, “Nitrogen-containing heterocyclic compound” (2018).

Where only a bound is given, the exact number is not on record here.

The assay deals with HUVEC. Description: Inhibition of TNF-alpha-induced CXCL10 production in HUVEC cells at 0.1 uM incubated for 1 hr followed by TNF-alpha addition and measured after 72 hrs by ELISA relative to control. Format: functional. The note with it: Homo sapiens.
Consider `CCn1c(=O)cc(C2CC2)c2cc(N3C(=O)C(C)C(=O)N3c3ccccc3)ccc21` (stereo unspecified), for which the inhibition at 0.1 µM was ≥ 50%.
As for `CCn1c(=O)cc(C(C)C)c2cc(N(C)C(=O)c3ccc(Cl)cc3)ccc21`, the inhibition at 0.1 µM is ≥ 50%.
Regarding `CCn1c(=O)cc(C2CC2)c2cc(-c3nccnc3-c3ccccc3)ccc21`, the inhibition at 0.1 µM is ≥ 50%.
Turning to `CCn1c(=O)cc(N2CCOCC2)c2cc(-n3c(-c4ccccc4)cn(CCN(C)C)c3=O)ccc21`, the inhibition at 0.1 µM was ≥ 50%.
Regarding `CCn1c(=O)cc(N2CCOCC2)c2cc(-n3c(-c4ccc(C(F)(F)F)cc4)c[nH]c3=O)ccc21`, the inhibition at 0.1 µM is ≥ 50%.
For the compound `CCn1c(=O)cc(N2CCOCC2)c2cc(-n3c(-c4ccccc4)cn(CCOC)c3=O)ccc21`, the inhibition at 0.1 µM was ≥ 50%.
For the compound `CCn1c(=O)cc(N2CCOCC2)c2cc(-n3c(-c4ccc(Cl)cc4)cn(C)c3=O)ccc21`, the inhibition at 0.1 µM was ≥ 50%.
Turning to `CCn1c(=O)cc(C2CC2)c2cc(-n3c(-c4ccc(Cl)cc4)cn(C)c3=O)ccc21`, the inhibition at 0.1 µM was ≥ 50%.
The result for `CCn1c(=O)cc(N2CCOCC2)c2cc(-n3c(-c4ccc(C)cc4)cn(C)c3=O)ccc21` reads ≥ 50%; that for `CCn1c(=O)cc(C2CC2)c2cc(-n3c(-c4ccc(C)cc4)cn(C)c3=O)ccc21`, ≥ 50%.
For the compound `CCn1c(=O)cc(N2CCOCC2)c2cc(-c3cccnc3-c3ccccc3)ccc21`, the inhibition at 0.1 µM was ≥ 50%.
Consider `CCn1c(=O)cc(C2CC2)c2cc(-c3nc(C)nn3-c3ccccc3)ccc21`, for which the inhibition at 0.1 µM is ≥ 50%.
As to `CCn1c(=O)cc(N2CCOCC2)c2cc(-n3c(-c4ccc(C)cc4)c[nH]c3=O)ccc21`, the inhibition at 0.1 µM was ≥ 50%.
With `CCN1CCC(c2cc(=O)n(CC)c3ccc(C(=O)N(C)c4ccccc4)cc23)CC1`, the inhibition at 0.1 µM was ≥ 50%.
The result for `CCn1c(=O)cc(C2CC2)c2cc(N3C(=O)CC[C@H]3c3ccccc3)ccc21` reads ≥ 50%; that for `CCn1c(=O)cc(N2CCOCC2)c2cc(-n3c(-c4ccccc4)cn(CCN4CCCCC4)c3=O)ccc21`, ≥ 50%; that for `CCn1c(=O)cc(C2CCN(C)CC2)c2cc(C(=O)N(C)c3ccc(C)c(C)c3)ccc21`, ≥ 50%.
As to `CCn1c(=O)cc(N2CCOCC2)c2cc(-c3ccccc3-c3ccccc3)ccc21`, the inhibition at 0.1 µM is ≥ 50%.
Turning to `CCn1c(=O)cc(N2CCOCC2)c2cc(-n3c(-c4ccc(C(F)(F)F)cc4)cn(C)c3=O)ccc21`, the inhibition at 0.1 µM was ≥ 50%.
As for `CCn1c(=O)cc(C2CCN(C)CC2)c2cc(C(=O)N(C)c3ccc(C)c(F)c3)ccc21`, the inhibition at 0.1 µM is ≥ 50%.
As to `CCCn1cc(-c2ccccc2)n(-c2ccc3c(c2)c(N2CCOCC2)cc(=O)n3CC)c1=O`, the inhibition at 0.1 µM is ≥ 50%.
The result for `CCn1c(=O)cc(N2CCOCC2)c2cc(-n3ccnc3-c3ccccc3)ccc21` reads ≥ 50%.
The result for `CCn1c(=O)cc(C2CC2)c2cc(-n3c(-c4ccc(Cl)cc4)c[nH]c3=O)ccc21` reads ≥ 50%.
The result for `CCn1cc(-c2ccccc2)n(-c2ccc3c(c2)c(N2CCOCC2)cc(=O)n3CC)c1=O` reads ≥ 50%; that for `CCn1c(=O)cc(N2CCOCC2)c2cc(-n3cc(C)nc3-c3ccccc3)ccc21`, ≥ 50%; that for `CCn1c(=O)cc(N2CCOCC2)c2cc(-n3c(-c4ccccc4)cn(CCO)c3=O)ccc21`, ≥ 50%.
On to `CCn1c(=O)cc(C2CC2)c2cc(-n3c(C)cc(=O)n3-c3ccccc3)ccc21`, for which the inhibition at 0.1 µM was ≥ 50%.
As to `CCn1c(=O)cc(C2CCN(C)CC2)c2cc(C(=O)N(C)c3ccc(C)c(Cl)c3)ccc21`, the inhibition at 0.1 µM is ≥ 50%.
Turning to `CCn1c(=O)cc(C2CCN(C)CC2)c2cc(C(=O)N(C)c3ccc(C)cc3)ccc21`, the inhibition at 0.1 µM is ≥ 50%.
Consider `CCn1c(=O)cc(C2CC2)c2cc(-c3cccnc3-c3ccccc3)ccc21`, for which the inhibition at 0.1 µM was ≥ 50%.
On to `CCC1C(=O)N(c2ccccc2)N(c2ccc3c(c2)c(C2CC2)cc(=O)n3CC)C1=O` (stereo unspecified), for which the inhibition at 0.1 µM is ≥ 50%.
With `CCn1c(=O)cc(N2CCOCC2)c2cc(-n3c(-c4ccc(Cl)cc4)c[nH]c3=O)ccc21`, the inhibition at 0.1 µM is ≥ 50%.
The result for `CCn1c(=O)cc(N2CCOCC2)c2cc(N3C(=O)CC[C@H]3c3ccccc3)ccc21` reads ≥ 50%.
For `CCn1c(=O)cc(C2CC2)c2cc(-n3c(-c4ccc(C(F)(F)F)cc4)cn(C)c3=O)ccc21`, the inhibition at 0.1 µM is ≥ 50%.
For `CCn1c(=O)cc(C2CC2)c2cc(-c3nc(C)[nH]c3-c3ccccc3)ccc21`, the inhibition at 0.1 µM is ≥ 50%.
On to `CCn1c(=O)cc(C2CCC(O)CC2)c2cc(C(=O)N(C)c3ccc(Cl)cc3)ccc21` (stereo unspecified), for which the inhibition at 0.1 µM is ≥ 50%.
The result for `CCn1c(=O)cc(N2CCOCC2)c2cc(-n3c(-c4ccccc4)c[nH]c3=O)ccc21` reads ≥ 50%.
With `CCn1c(=O)cc(N2CCOCC2)c2cc(-n3c(-c4ccccc4)cn(C(C)C)c3=O)ccc21`, the inhibition at 0.1 µM is ≥ 50%.
On to `CCCCn1cc(-c2ccccc2)n(-c2ccc3c(c2)c(N2CCOCC2)cc(=O)n3CC)c1=O`, for which the inhibition at 0.1 µM was ≥ 50%.
Regarding `CCn1c(=O)cc(C2CCN(C)CC2)c2cc(C(=O)N(C)c3ccc4c(c3)CCC4)ccc21`, the inhibition at 0.1 µM is ≥ 50%.
Take `CCn1c(=O)cc(C2CC2)c2cc(-n3c(-c4ccc(C)cc4)c[nH]c3=O)ccc21`: the inhibition at 0.1 µM is ≥ 50%.
Under `CCn1c(=O)cc(C)c2cc(-c3cccnc3-c3ccccc3)ccc21` stands ≥ 50%; under `CCn1c(=O)cc(N2CCOCC2)c2cc(-n3c(-c4ccccc4)cn(CCN4CCOCC4)c3=O)ccc21`, ≥ 50%.
On to `CCn1c(=O)cc(C2CC2)c2cc(-n3c(-c4ccc(C(F)(F)F)cc4)c[nH]c3=O)ccc21`, for which the inhibition at 0.1 µM was ≥ 50%.
With `CCn1c(=O)cc(N2CCOCC2)c2cc(N(C)C(=O)c3ccc(Cl)cc3)ccc21`, the inhibition at 0.1 µM is ≥ 50%.
In the case of `CCn1c(=O)cc(C2CCN(C)CC2)c2cc(C(=O)N3CCCc4ccccc43)ccc21`, the inhibition at 0.1 µM is ≥ 50%.
Consider `CCn1c(=O)cc(C2CC2)c2cc(N(C)C(=O)c3ccccc3)ccc21`, for which the inhibition at 0.1 µM is ≥ 50%.
Under `CCn1c(=O)cc(N2CCOCC2)c2cc(-c3nccn3-c3ccccc3)ccc21` stands ≥ 50%; under `CCn1c(=O)cc(C2CCN(C(C)=O)CC2)c2cc(C(=O)N(C)c3ccc(C)cc3)ccc21`, ≥ 50%; under `CCn1c(=O)cc(C2CC2)c2cc(-n3c(=O)cc(C)n3-c3ccccc3)ccc21`, ≥ 50%.
As for `CCn1c(=O)cc(C2CC2)c2cc(-n3c(=O)[nH]c(=O)n3-c3ccccc3)ccc21`, the inhibition at 0.1 µM was ≥ 50%.
